Source: patent publication US20180207228A1, “PEPTIDE COMBINATIONS AND USES THEREOF FOR TREATING GRASS ALLERGY” (ALK-Abelló A/S, priority 2015, published 2018)
Where no end group is shown, it is not given here.

Columns and labels:
Type in all cases: cell-based, human
[1] = system: release of IL-5 upon T cell activation; experiment: Fluorospot assay, IL-5 release (DK1-TCL01, US1-TCL01); settings: head prints TCL-02 DK1; text: 25 TCL-01 DK1 lines
In short: (§1)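 A peptide counted as a hit at ≥20 SFC/10^6 cells, stimulation index ≥2 over medium, and p and Poisson ≤0.05. Cells came from TCL01 lines, raised from allergic donors' CD8-depleted PBMCs over 14 days of natural-allergen stimulation with IL-2. They were exposed to 2 μg/ml peptide or peptide mix for 20 h at 37° C.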

[2] = system: release of IFN-γ upon T cell activation; experiment: Fluorospot assay, IFN-γ release (DK1-TCL01, US1-TCL01); settings: head prints TCL-02 DK1; 17 TCL-01 DK1 lines
In short: as §1

[3] = system: allergen specific T cells; experiment: T cell proliferation assay (72 h) on donor derived T cell lines (TCL02/TCL03); settings: for Proliferation % donor coverage (TCL-02 DK1): T cell lines TCL-02 DK1, 30 donors, hit criteria SI>=2, CPM>=1000; for Proliferation strength (TCL-02 DK1): T cell lines TCL-02 DK1, strength of response (average relative magnitude)
In short: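 Overlapping 20-mer and selected 15-mer grass allergen peptides were screened for proliferation using TCL02 (day 24) or TCL03 (day 34) lines. Lines came from grass-allergic donors' CD8-depleted PBMCs, primed with natural allergen mix and expanded with irradiated autologous or allogeneic APCs, PHA-P 0.5 μg/ml and rIL-2.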

Substance	IL-5-Fluorospotr % donor coverage (TCL-02 DK1) [1] [%]	IFN-gamma % donor coverage (TCL-02 DK1) [2] [%]	Proliferation % donor coverage (TCL-02 DK1) [3] [%]	Proliferation strength (TCL-02 DK1) [3]
GAASNKAFAEGLSGEPKGAA-OH [compound 76]	0.00	0.00	16.67	1.60
GDEQKLRSAGELELQFRRVK-OH [compound 6]	20.00	4.00	46.67	7.10
GFGMLLRKYGIAAENVIDVK-OH [compound 48]	4.00	15.00	30.00	4.70
GFKAALAAAAGVPPADKYRT-OH [compound 63]	12.00	0.00	26.67	4.10
GGASGYKDVDKPPFSGMTGS-OH [compound 18]	0.00	0.00	16.67	2.30
GNTPIFKSGRGSGSSFEIKS-OH [compound 20]	0.00	0.00	13.33	1.40
GQEDKLRKAGELTLQFRRVK-OH [compound 101]	4.00	0.00	13.33	1.20
GRGSGSSFEIKSTKPEASSG-OH [compound 2]	12.00	4.00	26.67	3.10
GRRHSVRIRVRSGGHDYEGL-OH [compound 51]	0.00	0.00	10.00	0.40
GSDPKKLVLNIKYTRPGDSL-OH [compound 36]	24.00	8.00	53.33	11.90
GSNEKHLAVLVKYEGDTMAE-OH [compound 31]	0.00	0.00	10.00	1.40
HGSEEWEPLTKKGNVWEVKS-OH [compound 37]	4.00	0.00	26.67	3.20
IKYTRPGDSLAEVELRQHGS-OH [compound 42]	0.00	0.00	16.67	0.80
IPKVPPGPNITATYGDKWLD-OH [compound 14]	0.00	0.00	3.33	0.40
ITATYGDKWLDAKSTWYGKP-OH [compound 16]	0.00	4.00	10.00	0.70
KDKWIELKESWGAIWRIDTP-OH [compound 10]	24.00	4.00	60.00	9.80
KEDFLGSLVKEIPPRLLYAK-OH [compound 45]	4.00	0.00	20.00	4.00

Substance	IL-5-Fluorospotr % donor coverage (TCL-02 DK1) [1] [%]	IFN-gamma % donor coverage (TCL-02 DK1) [2] [%]	Proliferation % donor coverage (TCL-02 DK1) [3] [%]	Proliferation strength (TCL-02 DK1) [3]
KPAAAATATATSAVGAATGA-OH [compound 87]	0.00	0.00	10.00	0.70
KPPFSGMTGSGNTPI-OH [compound 122]	4.17	0.00	10.34	0.60
KPPFSGMTGSGNTPIFKSGR-OH [compound 19]	0.00	0.00	16.67	1.10
KPTGAGPKDNGGASGYKDVD-OH [compound 17]	8.00	4.00	23.33	2.80
KSSKPLVGPFNFRFMSKGGM-OH [compound 39]	12.00	4.00	13.33	1.10
KVPPGPNITATYGDKWLDAK-OH [compound 15]	0.00	0.00	3.33	0.50
LSYRSLQPETFAVVDLNKMR-OH [compound 53]	0.00	4.00	10.00	1.20
LVKYVNGDGDVVAVDIKEKG-OH [compound 9]	20.00	8.00	26.67	1.60
PFDGMTASGNEPIFKDGLGS-OH [compound 94]	4.00	4.00	16.67	2.90
PMKSSWGAIWRIDPKKPLKG-OH [compound 108]	4.00	0.00	33.33	4.10
PYVSKNPRQAYANYRDIDLG-OH [compound 56]	0.00	4.00	20.00	3.10
RASYEIKSKEPVESSGEPVL-OH [compound 96]	0.00	0.00	6.67	0.60
RFLTEKGMKNVFDDVVPEKY-OH [compound 34]	4.00	0.00	6.67	0.60
RGAAPDDHGGASGYKDVDKP-OH [compound 92]	0.00	0.00	3.33	0.60
RIIAGTLEVHAVKPAAEEVK-OH [compound 80]	0.00	0.00	30.00	4.40
RNEVVNDVSTYASGKVWGQK-OH [compound 57]	4.00	4.00	16.67	2.00
